In patent US8232289B2, “Spiropiperidine compounds as ORL-1 receptor antagonists” (Eli Lilly and Company, priority 2009, dated 2012):
Marks after values point to notes of the source that are not given here.

System: Male Sprague-Dawley rats
Experiment: Rat dural plasma protein extravasation (PPE) model, oral dosing
Format: in vivo
Protocol: All test compounds are prepared in a vehicle solution containing 20% Captisol in 25 mM phosphate buffer (pH 2.0). The positive control compound, sumatriptan, is dissolved in saline. Male Sprague-Dawley rats from Harlan Laboratories (250 to 350 g), that have been fasted overnight, are dosed with test compound, sumatriptan or vehicle by oral gavage (2 mL/kg). Fifty min. post-dose the rats are anesthetized with Nembutal (60 mg/kg, ip) and placed in a stereotaxic frame with the incisor bar set at −2.5 mm. Following a mid-line sagittal scalp incision, 2 pairs of bilateral holes were drilled through the skull (3.2 mm posteriorly, 1.8 and 3.8 mm laterally, all coordinates referenced to bregma). Pairs of stainless steel stimulating electrodes (Rhodes Medical Systems Inc), insulated except at the tips, are lowered through the holes in both hemispheres to a depth of 9.2 mm below the dura.
A solution of fluoroscein isothiocyanate (FITC) dye-labeled bovine serum albumin (BSA) (FITC-BSA) (20 mg/kg, iv), is injected into the femoral vein 2 minutes prior to electrical stimulation of the trigeminal ganglion to function as the marker for protein extravasation. Sixty minutes following dosing with test compound or vehicle, the left trigeminal ganglion is electrically stimulated for 5 minutes at a current intensity of 1.0 mA (5 Hz, 5 minutes duration).
Five minutes following stimulation, the rats are killed by exsanguination with 40 mL of saline which also rinses residual FITC/BSA out of the blood vessels. The top of the skull is removed to collect the dural membranes. The membrane samples are removed from both hemispheres, rinsed with water, and spread flat on microscope slides. The slides are dried for 15 minutes on a slide warmer and cover-slipped with a 70% glycerol/water solution.
A fluorescence microscope equipped with a grating monochromator and a spectrophotometer is used to quantify the amount of FITC-BSA dye in each dural sample. The microscope is equipped with a motorized stage interfaced with a personal computer. This facilitates the computer-controlled movement of the stage, with fluorescence measurements at 25 points (500 μm steps) on each dural sample. The extravasation induced by electrical stimulation of the trigeminal ganglion is an ipsilateral effect (that is occurs only on the side of the dura in which the trigeminal ganglion is stimulated). This allows the other (unstimulated) half of the dura to be used as a control. The extravasation ratio (that is the ratio of the amount of extravasation in the dura from the stimulated side compared to the unstimulated side) is calculated. Animals dosed with vehicle alone or an ineffective dose of the test compound have an extravasation ratio of approximately 2, while totally effective treatments result in a ratio of approximately 1.
Results are expressed as mean values with standard errors of the mean (±SEM). All statistical evaluations are conducting utilizing ANOVA followed by comparison to the control group by Dunnett's Method. Statistical significance is assumed when p<0.05. Statistical analyses are performed using JMP statistical analysis software (SAS Research Institute, version 6.0.2).

Cc1nn(-c2ncccc2CO)cc1CN1CCC2(CC1)OCC(F)(F)c1cc(Cl)sc12 [Example 62, [2-[4-[(2-Chloro-4,4-difluoro-spiro[5H-thieno[2,3-c]pyran-7,4′-piperidine]-1′-yl)methyl]-3-methyl-pyrazol-1-yl]-3-pyridyl]methanol]
Extravasation Ratio (mean) (0.1 mg/kg po): 1.83 | Extravasation Ratio (mean) (1.0 mg/kg po): 1.44* | Extravasation Ratio (mean) (10.0 mg/kg po): 1.20* | Extravasation Ratio (mean) (30.0 mg/kg po): 1.14* | blockade of extravasation (oral dosing): effectively block extravasation in a dose dependent manner
